These results are taken from ChEMBL document CHEMBL1201862, “PubChem BioAssay data set” (2004).

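Test compounds were applied to cells in 96-well plates for 48 hours at 5 doses. GI50 marks 50% less growth.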 Activity calls are given as the source filed them. No stated cut-off is given here; in the data, active = GI50 up to about 1.1 µM and inactive = higher. Bounds are passed on as bounds.

Among the test systems are NCI-H23; OVCAR-3; SK-MEL-28; HCT-15; SNB-19; CCRF-CEM; UACC-62; OVCAR-5; OVCAR-8; HCT-116; A549; IGROV-1; UACC-257; SF-268; Malme-3M; SK-MEL-2; COLO 205; UO-31; HCC 2998; OVCAR-4.
Holding throughout (experiment): DTP human tumour cell line panel, 48 h

A word on the GI50: it is the concentration at which growth is held to half of that of the control. Consider `Cc1ccc(C(=O)C2CC3(CCC2(O)c2ccc(C)cc2)CC(=O)Nc2ccccc2C3=O)cc1` (stereo unspecified), for which the GI50 in the test on NCI-H23 was > 100 µM (inactive); in the test on OVCAR-3, > 100 µM (inactive); in the test on SK-MEL-28 it was > 100 µM (inactive); with HCT-15 it was above 100 µM; in the test on SNB-19, 51.6 µM (inactive); in the test with CCRF-CEM it was 5.66 µM (inactive). In addition, the GI50 was > 100 µM (inactive) with UACC-62; > 100 µM (inactive) with OVCAR-5; > 100 µM (inactive) with OVCAR-8; 62.7 µM (inactive) with HCT-116; > 100 µM (inactive) in the test with A549; > 100 µM (inactive) with IGROV-1. For the same compound, the GI50 in the test with UACC-257, in the test with SF-268, with Malme-3M, in the test with SK-MEL-2, with COLO 205 and in the test with UO-31 was > 100 µM (inactive) in each case. In addition, the GI50 with HCC 2998 was > 100 µM (inactive).

Regarding `COc1ccc(-c2c(C#N)c(N)nc3c2CCS(=O)(=O)c2ccccc2-3)cc1`, the GI50 in the test on NCI-H23 was > 100 µM (inactive); in the test with SK-MEL-28 it was > 100 µM (inactive); in the test on HCT-15 it was above 100 µM; in the test with SNB-19, > 100 µM (inactive); with CCRF-CEM, > 100 µM (inactive); in the test with UACC-62 it was > 100 µM (inactive). In addition, the GI50 in the test on OVCAR-8, in the test with HCT-116, in the test on A549, in the test with IGROV-1, in the test on UACC-257 and with OVCAR-4 was > 100 µM (inactive) in each case. Besides, the GI50 in the test on SF-268 was > 100 µM (inactive); in the test on Malme-3M, 44.3 µM (inactive); in the test with SK-MEL-2 it was > 100 µM (inactive); in the test with COLO 205, > 100 µM (inactive); in the test with UO-31, > 100 µM (inactive); in the test with HCC 2998, > 100 µM (inactive).

Take `O=[N+]([O-])c1cc2ncc(-c3ccccc3)c(O)c2cc1/C(Cl)=C/c1ccccc1`: the GI50 is 7.67 µM (inactive) in the test on NCI-H23; 2.59 µM (inactive) in the test with OVCAR-3; 17.2 µM (inactive) in the test with SK-MEL-28; 11.1 µM in the test on HCT-15; 16.3 µM (inactive) with SNB-19; 4.43 µM (inactive) in the test with CCRF-CEM. Also, the GI50 was 6.97 µM (inactive) in the test with UACC-62; > 44.7 µM (inactive) in the test with OVCAR-5; 5.6 µM (inactive) in the test with OVCAR-8; 6.89 µM (inactive) with HCT-116; 10.1 µM (inactive) with A549; 5.83 µM (inactive) with IGROV-1. In addition, the GI50 is 24.3 µM (inactive) in the test on UACC-257; 3.2 µM (inactive) in the test on OVCAR-4; 3.62 µM (inactive) with SF-268; 32.6 µM (inactive) in the test with SK-MEL-2; 7.82 µM (inactive) in the test on COLO 205; 9.89 µM (inactive) in the test on UO-31. Further, in the test with HCC 2998, the GI50 was 8.26 µM (inactive).

Take `CC1CN=C(Nc2cccc(C(F)(F)F)c2)S1` (stereo unspecified): the GI50 with NCI-H23 was 36.1 µM (inactive); in the test with OVCAR-3, 51.5 µM (inactive); in the test on SK-MEL-28, > 100 µM (inactive); in the test on HCT-15 it was 36.1 µM; with SNB-19, 95.5 µM (inactive); with CCRF-CEM, 31.9 µM (inactive). Further, the GI50 was 97.3 µM (inactive) in the test on UACC-62; > 100 µM (inactive) in the test with OVCAR-5; 41.7 µM (inactive) in the test with HCT-116; 52.5 µM (inactive) in the test with UACC-257; 44 µM (inactive) in the test with SF-268; > 100 µM (inactive) with Malme-3M. Besides, the values for the GI50 in the test on SK-MEL-2, with UO-31 and in the test with HCC 2998 were 77.6 µM (inactive), 27.5 µM (inactive) and > 100 µM (inactive), respectively.
